Measurements as given in the NIST ThermoML archive (doi:10.1007/s10765-008-0511-0).
± gives the expanded uncertainty stated by the source.

Conditions: Crystal; Heating/Cooling curves

Triple point temperature	SMILES
216.52 ± 1 K	O=C=O [carbon dioxide]
181.99 ± 1 K	[N-]=[N+]=O [nitrous oxide]
118.02 ± 1 K	FC(F)F [trifluoromethane]
